From EPA's CvTdb concentration-time database

Tests used:
rat [1] = assay: concentration in liver after dosing; details: dosed: benzo(a)pyrene, 40 umol/kg, iv, male, Sprague Dawley
rat [2] = assay: concentration in blood after dosing; details: dosed: benzo(a)pyrene, 40 umol/kg, iv, male, Sprague Dawley
rat [3] = assay: concentration in feces after dosing; details: dosed: benzo(a)pyrene, 40 umol/kg, iv, male, Sprague Dawley
rat [4] = assay: concentration in adipose after dosing; details: dosed: benzo(a)pyrene, 40 umol/kg, iv, male, Sprague Dawley
rat [5] = assay: concentration in skin after dosing; details: dosed: benzo(a)pyrene, 40 umol/kg, iv, male, Sprague Dawley
rat [6] = assay: concentration in blood after dosing (% dose/mL); details: dosed: benzo(a)pyrene, 117 nmol, iv, male, Sprague Dawley
rat [7] = assay: concentration in lung after dosing; details: dosed: benzo(a)pyrene, 40 umol/kg, iv, male, Sprague Dawley
rat [8] = assay: concentration in kidney after dosing; details: dosed: benzo(a)pyrene, 40 umol/kg, iv, male, Sprague Dawley

c1ccc2c(c1)cc1ccc3cccc4ccc2c1c34 [benzo(a)pyrene]
Details | concentration in adipose [µmol/kg] | concentration in blood | concentration in feces [µmol/kg] | concentration in kidney [µmol/kg] | concentration in liver [µmol/kg] | concentration in lung [µmol/kg] | concentration in skin [µmol/kg]
rat [1], 2 h | – | – | – | – | 2.31 | – | –
rat [1], 4 h | – | – | – | – | 1.91 | – | –
rat [1], 8 h | – | – | – | – | 1.79 | – | –
rat [1], 16 h | – | – | – | – | 0.574 | – | –
rat [1], 24 h | – | – | – | – | 0.21 | – | –
rat [1], 33 h | – | – | – | – | 0.165 | – | –
rat [1], 48 h | – | – | – | – | 0.0546 | – | –
rat [1], 72 h | – | – | – | – | 0.0254 | – | –
rat [2], 2 h | – | 0.422 µmol/kg | – | – | – | – | –
rat [2], 4 h | – | 0.118 µmol/kg | – | – | – | – | –
rat [2], 8 h | – | 0.076 µmol/kg | – | – | – | – | –
rat [2], 16 h | – | 0.0274 µmol/kg | – | – | – | – | –
rat [2], 24 h | – | 0.0156 µmol/kg | – | – | – | – | –
rat [2], 33 h | – | 0.0066 µmol/kg | – | – | – | – | –
rat [2], 48 h | – | 0.005 µmol/kg | – | – | – | – | –
rat [2], 72 h | – | 0.0024 µmol/kg | – | – | – | – | –
rat [3], 2 h | – | – | 0.0005 | – | – | – | –
rat [3], 4 h | – | – | 0.002 | – | – | – | –
rat [3], 8 h | – | – | 0.0127 | – | – | – | –
rat [3], 16 h | – | – | 0.0779 | – | – | – | –
rat [3], 24 h | – | – | 0.351 | – | – | – | –
rat [3], 33 h | – | – | 0.382 | – | – | – | –
rat [3], 48 h | – | – | 0.354 | – | – | – | –
rat [3], 72 h | – | – | 0.397 | – | – | – | –
rat [4], 2 h | 2.47 | – | – | – | – | – | –
rat [4], 4 h | 1.4 | – | – | – | – | – | –
rat [4], 8 h | 3.23 | – | – | – | – | – | –
rat [4], 16 h | 3.19 | – | – | – | – | – | –
rat [4], 24 h | 2.11 | – | – | – | – | – | –
rat [4], 33 h | 2.4 | – | – | – | – | – | –
rat [4], 48 h | 1.27 | – | – | – | – | – | –
rat [4], 72 h | 0.663 | – | – | – | – | – | –
rat [5], 2 h | – | – | – | – | – | – | 7.56
rat [5], 4 h | – | – | – | – | – | – | 2.74
rat [5], 8 h | – | – | – | – | – | – | 1.7
rat [5], 16 h | – | – | – | – | – | – | 0.783
rat [5], 24 h | – | – | – | – | – | – | 0.102
rat [5], 33 h | – | – | – | – | – | – | 0.0296
rat [5], 48 h | – | – | – | – | – | – | 0.0205
rat [5], 72 h | – | – | – | – | – | – | 0.018
rat [6], 0.3233 h | – | 0.081 | – | – | – | – | –
rat [6], 0.4938 h | – | 0.0586 | – | – | – | – | –
rat [6], 0.7433 h | – | 0.0404 | – | – | – | – | –
rat [6], 0.9867 h | – | 0.0307 | – | – | – | – | –
rat [6], 1.736 h | – | 0.012 | – | – | – | – | –
rat [6], 2.474 h | – | 0.00662 | – | – | – | – | –
rat [6], 3.463 h | – | 0.00438 | – | – | – | – | –
rat [6], 3.977 h | – | 0.00384 | – | – | – | – | –
rat [6], 4.987 h | – | 0.00267 | – | – | – | – | –
rat [6], 55 s | – | 0.859 | – | – | – | – | –
rat [6], 206 s | – | 0.278 | – | – | – | – | –
rat [7], 2 h | – | – | – | – | – | 17 | –
rat [7], 4 h | – | – | – | – | – | 10.2 | –
rat [7], 8 h | – | – | – | – | – | 17.6 | –
rat [7], 16 h | – | – | – | – | – | 16.9 | –
rat [7], 24 h | – | – | – | – | – | 8.02 | –
rat [7], 33 h | – | – | – | – | – | 11.2 | –
rat [7], 48 h | – | – | – | – | – | 7.35 | –
rat [7], 72 h | – | – | – | – | – | 5.18 | –
rat [8], 2 h | – | – | – | 0.53 | – | – | –
rat [8], 4 h | – | – | – | 0.145 | – | – | –
rat [8], 8 h | – | – | – | 0.164 | – | – | –
rat [8], 16 h | – | – | – | 0.0435 | – | – | –
rat [8], 24 h | – | – | – | 0.0127 | – | – | –
rat [8], 33 h | – | – | – | 0.008 | – | – | –
rat [8], 48 h | – | – | – | 0.004 | – | – | –
rat [8], 72 h | – | – | – | 0.001 | – | – | –
